Drawing on patent US20210236507A1, “METHODS AND PHARMACEUTICAL COMPOSITIONS FOR PREVENTING RELAPSE IN A PERSON WITH AN ADDICTION USING BETA ADRENERGIC RECEPTOR ANTAGONIST AND MUSCARINIC RECEPTOR ANTAGONIST COMBINATIONS” (MAGNOLIA CNS, LLC, priority 2020, published 2021), this text covers mouth/tongue paresthesia, taste and Ki for 3 molecules.

Entries after “also recorded” stand apart in the source; their conditions may differ. Counter-ions that a name gives are not always drawn.

In one data set the test system is humans. Description: Taste and mouth paresthesia of dose forms noted in humans during development. Format: in vivo, human. The settings on record: sublingual/liquid/solid dose forms. The text has this: The pharmaceutical compositions of the present invention, when intended for sublingual, buccal, and/or oral delivery, may benefit from taste-masking with natural and/or artificial flavors and/or sweeteners (e.g., mannitol, sucralose, monosaccharides, and disaccharides). Mouth paresthesia (numbness) can occur with propranolol HCl as a perceived adverse effect.
Alternative beta blockers may be chosen that lack these undesirable properties, such as atenolol.
Tablets are formed by compression of the powder using a mechanical tablet press. For instance tablets without coatings are prepared with composition #11 at about 70 mg each, for use as sublingual or oral dose forms. At this size of tablet an adult dose would deliver 20 mg propranolol HC and 0.5 mg scopolamine HBr. Alternatively, tablets may be produced using a triturate tablet mold (e.g., from the vendor PCCA), wherein the triturated powder is moistened with 95% ethanol and then the wells are filled with the moistened composition, extruded from the wells, and dried. The intra-oral mucosal (e.g., sublingual) tablets dissolve rapidly under the tongue, for instance in less than one minute (e.g., solid dose forms #13 and 14). […] Sublingual (or buccal) tablets may be preferred for rapid disintegration, dissolution, absorption and increased bioavailability via the mucosal route. A sublingual tablet of #23 weighing ca. 82 mg delivers a dose of ca. 25 mg atenolol and ca. 0.25 mg of scopolamine HBr. Tablets may also be ingested orally, although it is rational to presume that absorption will be somewhat delayed and bioavailability will be somewhat reduced with many APIs, relative to the mucosal route.

Data set [1] concerns the target muscarinic acetylcholine receptors (all five human receptor subtypes). The settings on record: cited from earlier work.

For the molecule `CC(C)NCC(O)COc1cccc2ccccc12` (stereo not drawn) [Propranolol HCl], the mouth/tongue paresthesia result is “delayed paresthesia of the tongue” with humans (HCl); “produces mouth paresthesia” in the data set with humans (listed as propranolol HCl, HCl); “Paresthesia” in the data set on humans (listed as propranolol, HCl). For the same molecule, the taste entry in the data set on humans (HCl) is ““acidic” and “medicine” taste”; in the data set on humans (listed as propranolol HCl, HCl), ““acidic” and “medicine” taste”; with humans (listed as propranolol, HCl) it was “undesirable taste”.
Take `CN1[C@@H]2C[C@@H](OC(=O)[C@H](CO)c3ccccc3)C[C@H]1[C@@H]1O[C@@H]12` [Scopolamine]: the Ki in data set [1] is 0.00034 to 0.053 µM.
With `CC(C)NCC(O)COc1ccc(CC(N)=O)cc1` (stereo not drawn) [atenolol], in the data set with humans, the mouth/tongue paresthesia result is on record as “neither property was observed; also recorded: lacked these undesirable characteristics” and the taste entry is recorded as “neither property was observed; also recorded: lacked these undesirable characteristics”.

As usually defined, the Ki is the equilibrium dissociation constant of an inhibitor or competing ligand from its target.
